Measured values: patent US20060128738A1, “Treatment of interstitial cystitis using cannabinoid analogs” (Indevus Pharmaceuticals, Inc., priority 2004, published 2006)

Tested on: cyclophosphamide-induced bladder overactivity
Test: Subacute bladder irritation by cyclophosphamide, cystometrograms, i.v. administration
Format: in vivo
Details: CYP-treated rats, after administration
Description: Cystometrograms (CMGs) are performed under urethane anesthesia (1 g/kg s.c.) using a catheter inserted into the bladder through the bladder dome via a midline abdominal incision. Saline is infused at a rate of 0.04 ml/min to elicit repetitive bladder contractions. Effects of intravenous (i.v.) injection of cannabinoid analogs and analogs of (6aR,10aR)-Δ^8-Tetrahydrocannabinol-11-oic Acids on bladder overactivity induced by either intravesical administration of acetic acid solution or one day treatment with cyclophosphamide are investigated. […] Thus, these Compound analogs can be effective for the treatment of pain and urinary frequency symptoms in patients with painful bladder syndrome/interstitial cystitis.
One day after intraperitoneal injection of cyclophosphamide (CYP, 150 mg/kg), control CMGs are recorded for 1 to 2 hour prior to i.v. administration of Compound analog or vehicle. See, example i, above. Following administration of Compound analog, changes in cystometric parameters such as ICIs, MVP, PT and BP are recorded to evaluate the effects of Compound analog on cyclophosphamide-induced bladder overactivity.

CCCCCCC(C)(C)c1cc(O)c2c(c1)OC(C)(C)[C@@H]1CC=C(C(=O)O)C[C@@H]21 [IP-751]
No significant changes: change in baseline pressure (BP) | change in maximum voiding pressure (MVP) | change in pressure threshold (PT)
